In publication PMC11586601 (Journal of Inherited Metabolic Disease, 2024):
Values belong to the molecule of their own block, whether it stands above or below them.

Experiments:
cHuNAGS (linker-cleaved) [1] = target: cHuNAGS (linker-cleaved) (Homo sapiens, UniProt Q8N159, V350I); assay: biochemical
cHuNAGS (linker-cleaved) [2] = target: T1, cHuNAGS (linker-cleaved) (Homo sapiens, UniProt Q8N159); assay: biochemical
T1 sequence (Q8N159 95-534): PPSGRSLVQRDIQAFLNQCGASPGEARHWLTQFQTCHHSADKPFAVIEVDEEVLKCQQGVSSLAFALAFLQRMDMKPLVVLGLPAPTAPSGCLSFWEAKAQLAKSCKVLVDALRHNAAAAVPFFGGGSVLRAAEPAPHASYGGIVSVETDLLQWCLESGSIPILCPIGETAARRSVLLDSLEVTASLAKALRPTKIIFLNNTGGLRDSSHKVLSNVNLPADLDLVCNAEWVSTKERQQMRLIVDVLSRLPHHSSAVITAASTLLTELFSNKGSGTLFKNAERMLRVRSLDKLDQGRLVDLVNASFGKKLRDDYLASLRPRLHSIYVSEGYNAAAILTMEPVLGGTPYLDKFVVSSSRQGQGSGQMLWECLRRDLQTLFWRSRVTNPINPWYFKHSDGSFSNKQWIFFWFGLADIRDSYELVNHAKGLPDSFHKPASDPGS

SEC = target: the molecule itself; assay: SEC

Chain of cHuNAGS (linker-cleaved) (Homo sapiens, UniProt Q8N159, V350I) (Q8N159 95-534 V350I): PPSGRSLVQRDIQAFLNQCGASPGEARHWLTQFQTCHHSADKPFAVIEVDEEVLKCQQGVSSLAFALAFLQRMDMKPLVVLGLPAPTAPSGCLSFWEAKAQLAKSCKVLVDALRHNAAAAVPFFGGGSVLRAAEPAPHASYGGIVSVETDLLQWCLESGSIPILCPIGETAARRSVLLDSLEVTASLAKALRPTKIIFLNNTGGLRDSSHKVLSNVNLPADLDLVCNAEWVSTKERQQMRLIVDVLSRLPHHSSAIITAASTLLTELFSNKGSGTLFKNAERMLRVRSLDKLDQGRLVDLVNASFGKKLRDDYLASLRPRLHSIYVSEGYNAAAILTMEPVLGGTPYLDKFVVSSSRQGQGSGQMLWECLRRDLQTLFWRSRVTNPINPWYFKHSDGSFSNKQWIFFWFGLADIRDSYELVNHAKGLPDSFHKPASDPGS

EC50 (cHuNAGS (linker-cleaved) [1]): > 4000 µM
EC50 (cHuNAGS (linker-cleaved) [2]): ~20 µM
Molecule: N=C(N)NCCC[C@H](N)C(=O)O [arginine]

B1: His6-MBP-cHuNAGS chimera (wild-type) (domain or fragment, human)
chain: LEVLFQGPMPPSGRSLVQRDIQAFLNQCGASPGEARHWLTQFQTCHHSADKPFAVIEVDEEVLKCQQGVSSLAFALAFLQRMDMKPLVVLGLPAPTAPSGCLSFWEAKAQLAKSCKVLVDALRHNAAAAVPFFGGGSVLRAAEPAPHASYGGIVSVETDLLQWCLESGSIPILCPIGETAARRSVLLDSLEVTASLAKALRPTKIIFLNNTGGLRDSSHKVLSNVNLPADLDLVCNAEWVSTKERQQMRLIVDVLSRLPHHSSAVITAASTLLTELFSNKGSGTLFKNAERMLRVRSLDKLDQGRLVDLVNASFGKKLRDDYLASLRPRLHSIYVSEGYNAAAILTMEPVLGGTPYLDKFVVSSSRQGQGSGQMLWECLRRDLQTLFWRSRVTNPINPWYFKHSDGSFSNKQWIFFWFGLADIRDSYELVNHAKGLPDSFHKPASDPGS
binding result (SEC): binds
